Laboratory results as given in paper PMC9845330 (Communications Biology, 2023).
Non-standard residues stand in square brackets, D forms with d. Residues, ends and D or L forms follow the SMILES beside them. *: point of attachment. X1 = O=C(CCCC[C@@H]1SC[C@@H]2NC(=O)N[C@@H]21)NCCCOCCOCCOCCCN*; PEG12 = NCCOCCOCCOCCOCCOCCOCCOCCOCCOCCOCCOCCOCCC(=O)O

Columns and labels:
[1] = system: H1299 xenograft tumor; assay: Tumor homing by near infrared imaging; assay type: in vivo, mouse
Description: Animal experiments were approved by SRI International’s Institutional Animal Care and Use committee (Animal Welfare Assurance Number A3025-01, protocol 14008). H2009 cells (10^6) or H1299 cells (10^6) were implanted subcutaneously on the flank of female Nu/Nu mice (Jackson Laboratory, Bar Harbor, ME). When tumors reached 100 mm^3, in vivo experiments were initiated. For imaging, the indicated peptides were conjugated directly to Alexa Fluor 750 near-infrared dye (Supplemental Fig. 1). Four animals per group were used. Peptides were injected into the lateral tail vein for a total dose 15 µgs/mouse delivered in 100 µL. At set period of times, animals were anesthetized and imaged on an IVIS® (Perkin Elmer). Regions of interest were drawn around the tumor and the total radiant efficiency was measured. For therapeutic experiments, we chose to use the H2009 tumor model as it has a higher tumor take rate and more consistent growth rate than the H1299 model. Biotinylated MGS4_V8 (N = 9) or MGS4_V6 (N = 8) were conjugated to streptavidin-saporin and administered via tail-vein injection (7.5 µg/100 µl) 2x/week for 2.5 weeks for a total of 5 treatments. Nontreated animals (N = 8) served as the control. Tumor size was measured with calipers every other day and volume was calculated as (π/6)(l*w)^3/2. Statistical analysis was performed on GraphPad Prism®.
Supplemental Figure 1. […]
-Qdot605, streptavidin-R- phycoerythrin, and streptavidin-saporin. b) For NIR imaging experiments, Alexa Fluor 750 was directly conjugated to the peptide by the reaction of maleimide modified dye with a thiol containing MGS4_V8 peptide. c ) The structure of the monomeric MGS4 used for serum stabilities. […]
Supplemental Figure 5. MGS4_V8 homes to H12 99 xenograft tumor after systemic delivery.
H1299 tumor bearing nude mice ( N=4 ) were injected I.V. with MGS4_V8 or MGS4_V6 conjugated to NIR dye Alexa Fluor 750. At 24, 48, and 72 hours post injection, mice were anesthetized and imaged on an IVIS® (Perkin E lme r ) to measure total radiant efficiency in each tumor. MGS4_V8 accumulates in tumor ≈3-fold better than control peptide, MGS4_V6. MGS4_V6 accumulation is statistically no different than […]
untreated tumo rs. […]
A standard curve was generated using Quantum ™ Alexa Fluor 647 microspheres (Bangs Laboratory, Fishers, IN). A representative linear regression showing the correlation of molecule equivalents soluble fluorophores (MESF) vs the mean fluorescence intensity (MFI) is shown. The MFI is determined at 50% […]
Supplemental Figure 7. Example of flow cytometry data: MGS4_V10 Uptake on H1993 Cells .
The gating strategy, cell population data , and MFI determination for an example binding experiment is shown. Cells were gated by forward and side scatter to exclude nonviable cells or cell clusters as shown.
Individual dot plots and histograms are shown for a concentration range of 0.1 nM – 50 nM. The MFI is determined at 50% peak height. Molecules internalized per cell were determined by the standard curve relating MESF to MFI and divided by the number dye molecules/MGS conjugate.

[2] = system: H1299 cells; assay: Cell binding and internalization by flow cytometry, relative (normalized) uptake of peptide-streptavidin-phycoerythrin; assay type: cell-based, human
Procedure: MGS4 was initially selected by phage display biopanning of a peptide library on live cells. […] As such, multivalent binding is often required. To ascertain whether multivalent binding is required for MGS4 internalization, monomeric (MGS4_V2) and tetrameric (MGS4_V1) peptides were synthesized and labeled as described (Supplementary Figure 1). After incubation of varying peptide concentrations on live cells, surface-bound peptide was removed by low pH washes, as well as trypsinization. Relative internalization was measured by flow cytometry to determine an EC50 value which represents the concentration of peptide producing half-maximal internalization. This measurement is dependent on the affinity of the peptide for its cellular target and the rate of internalization. This is a more accurate representation of the biological situation and useful in evaluating the peptides as drug delivery agents. As expected for receptor-mediated endocytosis, uptake of MGS4 is saturable with increasing concentration.
Fig. 1 Monomeric and tetrameric MGS4 have similar binding, internalization and subcellular location. a Binding and internalization of tetrameric MGS4_V1 and monomeric MGS4_V2 on live H1299 cells in culture. Cells were incubated with the peptide conjugated to streptavidin-phycoerythrin for 1 h at 37 °C. Non-internalized peptide was removed and the cells were analyzed by flow cytometry. b H1299 cells were incubated with MGS4_V1 or MGS4_V2 conjugated to streptavidin-Alexa Fluor 555 (red) for 1 h, washed, fixed and counterstained with WGA-Alexa Fluor 488 (green, cell membrane) and DAPI (blue, nuclei) and analyzed by fluorescence microscopy. The scale bar represents 20 µm. MGS4_V1 and MGS4_V2 internalize to a similar degree and localize to a similar destination. c Truncated monomeric MGS4 peptides have similar EC50 as the parental full-length peptide. Individual measurements are shown. The mean is shown as an “X” and black error bars represent standard error for a minimum of three experimental replicates (SEM). All original binding data and nonlinear regression analysis of the data are included in the supplementary materials.
Biotinylated peptide was conjugated to streptavidin-R-phycoerythrin or streptavidin-Alexa Fluor 647 (1:1 molar ratio) for 30 min. The open binding sites on streptavidin were quenched with RPMI 1640 and diluted to the indicated concentration. Tumor cells were grown to 90% confluency in a 12 well plate, then incubated with 500 µl peptide-dye conjugate at 37 °C. After 1 h, peptide was removed, and the cells were washed 3x with PBS (137 mM NaCl, 2.7 mM KCl, 10 mM Na2HPO4, 1.8 mM KH2PO4, pH 7.4), 2x with 0.1 M HCl-glycine pH2.2 in 0.9% NaCl, and 1x PBS rinse. Cells were removed by trypsinization. Flow cytometry was performed on a BD FACSCelesta, and data were analyzed on Flowing software. Cells were gated based on the forward and side scatter to include only viable cells and a minimum of 10,000 events were counted. A region containing <5% of the cells in the negative control was established, and relative peptide uptake by the mean fluorescence intensity of that population. For absolute peptide uptake per cell, a standard curve was generated using Quantum™ Alexa Fluor 647 microspheres (Bangs Laboratory, Fishers, IN). A representative linear regression showing the correlation of molecule equivalents soluble fluorophores (MESF) vs the mean fluorescence intensity (MFI) is shown in Supplemental Figure 6. Cells were gated based on the forward and side scatter to include only viable cells and a minimum of 10,000 events were counted. MFI was determined at 50% at peak height. Molecules internalized per cell were determined by the standard curve relating MESF to MFI and divided by the number dye molecules/MGS conjugate. An example is shown in supplemental Figure 7. GraphPad Prism® was used for non-linear regression curve fitting to calculate an EC50. […]

Compound | Total Radiant Efficiency ([1]; 24 h, Mouse 1) | Total Radiant Efficiency ([1]; 24 h, Mouse 2) | Total Radiant Efficiency ([1]; 24 h, Mouse 3) | Total Radiant Efficiency ([1]; 24 h, Mouse 4) | Total Radiant Efficiency ([1]; 48 h, Mouse 1) | Total Radiant Efficiency ([1]; 48 h, Mouse 2) | Total Radiant Efficiency ([1]; 48 h, Mouse 3) | Total Radiant Efficiency ([1]; 48 h, Mouse 4) | Total Radiant Efficiency ([1]; 72 h, Mouse 1) | Total Radiant Efficiency ([1]; 72 h, Mouse 2) | Total Radiant Efficiency ([1]; 72 h, Mouse 3) | Total Radiant Efficiency ([1]; 72 h, Mouse 4) | fold tumor accumulation versus control peptide MGS4_V6 ([1]; H1299 tumors, 24-72 h, Alexa Fluor 750 conjugate, N=4) | Bmax (best-fit) ([2]; Supplementary Table 2, normalized binding) | EC50 (nM) ([2]; H1299 cells, 1 h at 37 °C, normalized uptake, one-site specific binding fit, Average ± SEM, minimum 3 replicates)
CC(=O)N[C@@H](Cc1ccccc1)C(=O)N[C@@H](Cc1c[nH]cn1)C(=O)N[C@@H](C)C(=O)N[C@H](C(=O)N1CCC[C@H]1C(=O)N[C@@H](CCC(N)=O)C(=O)N[C@@H](CO)C(=O)N[C@@H](Cc1ccccc1)C(=O)N[C@@H](Cc1ccc(O)cc1)C(=O)N[C@H](C(=O)NCCOCCOCCOCCOCCOCCOCCOCCOCCOCCOCCOCCOCCC(=O)N[C@@H](CCC(=O)NCCCOCCOCCOCCCNC(=O)CCCC[C@@H]1SC[C@@H]2NC(=O)N[C@@H]21)C(N)=O)[C@@H](C)O)C(C)C [MGS4_V8] (Ac-FHAVPQSFYT[PEG12]E(X1)-NH2) | 1.32e+009 | 1.83e+009 | 9.57e+008 | 2.96e+009 | 9.13e+008 | 9.76e+008 | 7.72e+008 | 1.71e+009 | 9.42e+008 | 7.37e+008 | 1.06e+009 | 1.35e+009 | ≈ 3 fold | 1.423 | 
*HAVPQSFYT** [MGS4_V6] | 7.74e+008 | 4.6e+008 | 7.58e+008 | 3.13e+008 | 5.44e+008 | 3.19e+008 | 3.39e+008 | 3.19e+008 | 5.46e+008 | 3.28e+008 | 3.61e+008 | 4.28e+008 |  |  | Not Detected^2
